The values below come from patent US11191765B2, “Heterocyclic compounds for the inhibition of PASK” (BioEnergenix LLC, priority 2012, dated 2021).

Structures are written as SMILES. A value given as a limit tells only on which side of the number the result lay.

One assay deals with PASK (Invitrogen) (Homo sapiens (Human), UniProt Q96RG2). The assay can be described thus: PAS Kinase FRET Assay. The assay is classed as biochemical. Particulars: TR-FRET (665 nm/615 nm), Ulight-peptide substrate, 2 hours at 25° C.; read-out: IC50 Kinase Domain. The text has this: The aim of the FRET assay is to determine the inhibition potential of test compounds on targeted kinase. This assay platform provides a homogenous screening method for measuring kinase activity by quantitating the amount of phospho-substrate in solution following a kinase reaction.
Chain of PASK (Invitrogen) (Q96RG2 999-1251): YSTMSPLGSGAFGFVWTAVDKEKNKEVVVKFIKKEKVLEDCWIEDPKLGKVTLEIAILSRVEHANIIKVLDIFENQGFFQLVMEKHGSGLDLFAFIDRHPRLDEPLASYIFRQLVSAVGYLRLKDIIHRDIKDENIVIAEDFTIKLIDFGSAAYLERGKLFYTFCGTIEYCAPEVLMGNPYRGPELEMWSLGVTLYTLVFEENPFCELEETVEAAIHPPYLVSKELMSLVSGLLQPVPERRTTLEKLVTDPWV
In the presence of kinase and ATP, the Ulight-peptide is phosphorylated and captured by an anti-phospho-substrate antibody, which brings the Eu chelate donor and Ulight acceptor dyes into close proximity. Upon excitation at 340 nm, the Eu chelate transfers its energy to the Ulight dye, resulting in a fluorescent light emission at 665 nm.
Titration of kinase at 1 mM ATP was achieved via the following protocol. After making serial three-fold dilutions of PASK (Invitrogen) in reaction buffer across the plate; 5 μl of kinase dilution and 5 μl substrate/ATP mix were added to the wells of the white Optiplate-384 (PerkinElmer). The contents of the plate were and incubated at RT for 1 h. The reaction was stopped by adding 5 μl of stop solution to each test well followed by mixing and incubation at RT for 10 minutes. 5 μl of detection mix (detection antibody diluted in detection buffer) was added; the contents of the plate were mixed and then incubated in the dark for 1 hour at RT. The signal was recorded at TR-FRET mode (665 nm/615 nm). The results were graphed to calculate the EC50.
Titration of ATP at the EC50 concentration of kinase to determine ATP Km,app. was performed using the following method. After making serial dilutions of ATP (Invitrogen), 5 μl of ATP dilution and 5 μl substrate/kinase mix were added to the wells of the white Optiplate-384 (PerkinElmer). The contents of the plate were and incubated at RT for 1 h. The reaction was stopped by adding 5 μl of stop solution to each test well followed by mixing and incubation at RT for 10 minutes. 5 μl of detection mix (detection antibody diluted in detection buffer) was added; the contents of the plate were mixed and then incubated in the dark for 1 hour at RT. The signal was recorded at TR-FRET mode (665 nm/615 nm). The results were graphed to calculate the EC50 as the ATP Km,app.
Compound screening was done via the following method. 10 mM stock solution of test compound in DMSO was prepared by dissolving test compound in DMSO at RT for 1 hour, and then sonicating at 100% output for 8 minutes. If compound is not soluble under this condition, it was diluted to 3 mM. Kinase reaction buffer was prepared containing 10 mM MgCl2, 50 mM HEPES, 1 mM EGTA, 0.01% TWEEN-20, 2 mM DTT. Serial dilutions of the test compounds were prepared at 4×final assay concentrations using Freedom EVO200® dispensing system as follows: 12×10^−5 M, 4×10^−5 M, 1.33×10^−5 M, 4.44×10^−6 M, 1.48×10^−6 M, 4.92×10^−7 M, 1.65×10^−7 M, 5.48×10^−7 M, 1.82×10^−8 M, 6.09×10^−9, 2.03×10^−9 M. Test compounds (2.5 μl at 4×the final assay concentration) was added to wells using Freedom EVO200® dispensing system. As a positive control, 2.5 μl of positive compound was added to assay wells, and 2.5 μl of DMSO to assay wells as vehicle control. Kinase solution was prepared in reaction buffer at 2×final assay concentration. Kinase solution (5 μl) was added to each well of the assay plate. The substrate and ATP solution was prepared in kinase reaction buffer at 4×final assay concentration. The kinase reaction was started by adding 2.5 μl of substrate+ATP mix solution to each well of the assay plate. The plate is mixed on a plate shaker; then covered and allowed to react for 2 hours in the dark at 25° C. without shaking. The reaction was stopped by adding 5 μl of stop solution to each test well followed by mixing and incubation at RT for 10 minutes in the dark. 5 μl of detection mix (detection antibody diluted in detection buffer) was added; the contents of the plate were mixed and then incubated in the dark for 1 hour at RT. The signal was recorded at TR-FRET mode (665 nm/615 nm).

The next assay concerns the target PASK (UniProt #Q96RG2; human recombinant N-terminal GST tagged construct, residues 879-1323) (Homo sapiens (Human), UniProt Q96RG2). The assay can be described thus: PASK ATP Radiochemical Assay. The format is biochemical. The following applies: radiochemical 33P-ATP assay, Myelin Basic Protein substrate, 120 min at room temperature; read-out: IC50 Kinase Domain. The method, then: Biochemical Assay for hPASK Activity
PASK ATP Radiochemical Assay
Purified PASK (UniProt #Q96RG2; human recombinant N-terminal GST tagged construct, residues 879-1323) from insect cells (final concentration 5 nM) is added to freshly prepared Base Reaction Buffer containing 20 mM HEPES (pH 7.5), 10 mM MgCl2, 1 mM EGTA, 0.02% Brij35, 0.02 mg/ml BSA, 0.1 mM Na3VO4, 2 mM DTT, 1% DMSO and Myelin Basic Protein (20 μM final). Test compounds in DMSO are then added and the mixture, followed by delivery of ^33P-ATP (specific activity 0.01 μCi/μl final) to initiate the reaction. The kinase reaction is incubated for 120 min at room temperature. The entire reaction mixture is washed through onto a P81 Phosphocellulose paper and washed three times for 10 minutes in 75 mM phosphoric acid and once in methanol prior to drying and scintillation counting.

Chain of PASK (Q96RG2 879-1323, change not shown): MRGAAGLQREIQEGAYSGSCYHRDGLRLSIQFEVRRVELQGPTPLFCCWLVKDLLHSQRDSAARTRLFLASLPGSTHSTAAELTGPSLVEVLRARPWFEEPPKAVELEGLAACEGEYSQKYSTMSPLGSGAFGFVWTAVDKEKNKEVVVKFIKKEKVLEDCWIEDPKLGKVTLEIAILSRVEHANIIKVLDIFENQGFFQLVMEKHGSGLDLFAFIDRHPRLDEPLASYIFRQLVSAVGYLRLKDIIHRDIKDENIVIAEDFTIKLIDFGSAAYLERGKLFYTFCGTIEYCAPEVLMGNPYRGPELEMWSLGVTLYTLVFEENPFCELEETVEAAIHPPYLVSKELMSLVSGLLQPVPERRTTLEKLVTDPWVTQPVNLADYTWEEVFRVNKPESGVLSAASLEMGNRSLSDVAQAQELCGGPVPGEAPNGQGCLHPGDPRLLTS

One may read the IC50 as the concentration that gives 50% inhibition. Regarding `COc1ccc(-c2cc(=O)n3nc(-c4ccc(Cl)cc4)nc3[nH]2)cc1` [Example 34, 2-(4-Chlorophenyl)-5-(4-methoxyphenyl)-[1,2,4]triazolo[1,5-a]pyrimidin-7(4H)-one], the IC50 at PASK (Invitrogen) and at PASK was at most 10 µM in each case.
